Reference: paper PMC5303825, “The ancient CYP716 family is a major contributor to the diversification of eudicot triterpenoid biosynthesis” (Nature Communications, 2017)

Experiments:
Format in all cases: cell-based
[1] = target: T1, CYP716A113v1 (Aquilegia coerulea, UniProt A0A1I9Q601); experiment: GC-MS of products in spent medium of engineered yeast; conditions: co-expressed SlCAS and MTR1; putative hydroxy-cycloartenol product
T1 construct: full-length ORF from cDNA, expressed in Saccharomyces cerevisiae with tomato SlCAS and M. truncatula reductase MTR1
T1 sequence (A0A1I9Q601 1-485): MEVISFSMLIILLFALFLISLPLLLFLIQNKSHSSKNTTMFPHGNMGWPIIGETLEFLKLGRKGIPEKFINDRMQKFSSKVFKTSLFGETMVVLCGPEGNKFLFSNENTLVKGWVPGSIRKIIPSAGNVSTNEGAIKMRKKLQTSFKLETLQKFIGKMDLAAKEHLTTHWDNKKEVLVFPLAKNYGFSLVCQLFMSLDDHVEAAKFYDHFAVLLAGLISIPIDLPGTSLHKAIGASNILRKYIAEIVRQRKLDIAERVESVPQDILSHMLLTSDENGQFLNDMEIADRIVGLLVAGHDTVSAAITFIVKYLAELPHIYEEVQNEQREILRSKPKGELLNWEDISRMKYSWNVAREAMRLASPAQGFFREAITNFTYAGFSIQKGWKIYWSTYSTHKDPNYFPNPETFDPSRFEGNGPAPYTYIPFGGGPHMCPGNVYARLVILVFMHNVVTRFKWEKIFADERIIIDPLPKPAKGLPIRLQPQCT

[2] = target: T2, CYP716C11 (Centella asiatica, UniProt A0A1I9Q5Y7); experiment: as above; conditions: co-expressed GgBAS, CYP716A83 and MTR1; product maslinic acid
T2 construct: gene MAA45; full-length ORF from cDNA library, expressed in Saccharomyces cerevisiae with GgBAS (or CaDDS), CYP716A83 and M. truncatula reductase MTR1; T2A polyprotein CYP716A83-CYP716C11
T2 sequence (A0A1I9Q5Y7 1-475): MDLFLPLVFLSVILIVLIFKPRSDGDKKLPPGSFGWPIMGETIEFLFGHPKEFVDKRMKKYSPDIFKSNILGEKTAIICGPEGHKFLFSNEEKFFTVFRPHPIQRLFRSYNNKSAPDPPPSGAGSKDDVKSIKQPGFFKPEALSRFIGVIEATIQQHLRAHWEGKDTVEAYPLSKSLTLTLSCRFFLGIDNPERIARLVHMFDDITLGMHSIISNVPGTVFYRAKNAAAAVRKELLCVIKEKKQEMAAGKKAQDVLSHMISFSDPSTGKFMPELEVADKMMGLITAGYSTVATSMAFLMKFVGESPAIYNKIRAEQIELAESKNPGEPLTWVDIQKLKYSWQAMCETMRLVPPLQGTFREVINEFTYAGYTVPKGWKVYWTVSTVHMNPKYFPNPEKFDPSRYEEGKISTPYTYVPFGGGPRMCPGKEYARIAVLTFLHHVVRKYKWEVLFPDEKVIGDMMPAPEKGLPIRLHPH

[3] = target: T3, CYP716E41 (Centella asiatica, UniProt A0A1I9Q5Y6); experiment: as above; conditions: co-expressed GgBAS, CYP716A83 and MTR1; putative product 6β-hydroxy oleanolic acid
T3 construct: full-length ORF from cDNA library, expressed in Saccharomyces cerevisiae with GgBAS, CYP716A83 and M. truncatula reductase MTR1
T3 sequence (A0A1I9Q5Y6 1-477): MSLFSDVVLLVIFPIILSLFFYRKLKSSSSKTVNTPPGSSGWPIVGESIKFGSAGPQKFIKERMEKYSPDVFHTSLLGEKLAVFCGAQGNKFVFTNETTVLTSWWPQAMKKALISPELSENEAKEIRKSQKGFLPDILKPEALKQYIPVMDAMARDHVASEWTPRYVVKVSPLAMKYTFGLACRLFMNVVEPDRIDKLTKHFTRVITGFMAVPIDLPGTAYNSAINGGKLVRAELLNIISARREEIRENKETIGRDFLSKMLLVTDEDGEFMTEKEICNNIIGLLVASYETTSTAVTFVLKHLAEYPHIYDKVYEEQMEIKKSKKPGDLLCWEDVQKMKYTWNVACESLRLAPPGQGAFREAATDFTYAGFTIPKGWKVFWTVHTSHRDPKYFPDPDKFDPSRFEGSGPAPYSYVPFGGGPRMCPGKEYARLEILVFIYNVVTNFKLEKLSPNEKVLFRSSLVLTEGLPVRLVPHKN

[4] = target: T4, CYP716A83 (Centella asiatica, UniProt A0A1I9Q5Y4); experiment: as above
T4 construct: full-length ORF from cDNA library, expressed in Saccharomyces cerevisiae with GgBAS (or CaDDS) and M. truncatula reductase MTR1; T2A polyprotein with CYP716C11 in some strains
T4 sequence (A0A1I9Q5Y4 entry or part of it): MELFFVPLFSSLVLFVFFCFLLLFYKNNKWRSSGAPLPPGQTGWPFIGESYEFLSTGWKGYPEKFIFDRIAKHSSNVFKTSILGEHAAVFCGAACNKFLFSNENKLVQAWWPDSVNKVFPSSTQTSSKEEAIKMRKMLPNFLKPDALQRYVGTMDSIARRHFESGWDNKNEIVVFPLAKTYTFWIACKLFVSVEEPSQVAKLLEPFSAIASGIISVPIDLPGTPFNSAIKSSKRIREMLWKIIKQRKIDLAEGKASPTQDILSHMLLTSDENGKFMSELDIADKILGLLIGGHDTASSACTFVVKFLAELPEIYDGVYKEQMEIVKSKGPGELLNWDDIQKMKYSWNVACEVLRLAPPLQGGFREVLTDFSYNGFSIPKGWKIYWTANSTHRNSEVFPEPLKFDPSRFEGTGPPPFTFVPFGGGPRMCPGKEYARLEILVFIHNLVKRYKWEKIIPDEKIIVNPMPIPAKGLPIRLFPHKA

[5] = target: T5, CYP716A141 (Platycodon grandiflorus, UniProt A0A1I9Q5Z0); experiment: GC-MS of engineered yeast medium; product NMR; conditions: co-expressed GgBAS and MTR1; product 16β-hydroxy β-amyrin (minor erythrodiol, oleanolic acid)
T5 construct: full-length ORF (RACE), expressed in Saccharomyces cerevisiae with GgBAS and M. truncatula reductase MTR1; b33 once misprints C. asiatica
T5 sequence (A0A1I9Q5Z0 1-481): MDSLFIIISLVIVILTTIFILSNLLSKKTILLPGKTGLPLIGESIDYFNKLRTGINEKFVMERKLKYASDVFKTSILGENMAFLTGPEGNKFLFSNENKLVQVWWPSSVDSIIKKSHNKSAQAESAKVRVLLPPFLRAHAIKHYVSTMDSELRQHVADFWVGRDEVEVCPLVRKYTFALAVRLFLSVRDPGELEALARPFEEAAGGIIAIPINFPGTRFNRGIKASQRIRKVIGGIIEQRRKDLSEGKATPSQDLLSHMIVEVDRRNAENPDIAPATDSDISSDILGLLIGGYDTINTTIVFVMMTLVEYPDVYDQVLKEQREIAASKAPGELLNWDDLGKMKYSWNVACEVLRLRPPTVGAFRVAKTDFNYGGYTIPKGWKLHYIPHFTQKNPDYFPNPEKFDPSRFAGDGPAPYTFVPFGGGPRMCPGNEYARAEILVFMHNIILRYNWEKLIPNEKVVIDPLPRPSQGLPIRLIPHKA

[6] = target: T6, CYP716A140 (Platycodon grandiflorus, UniProt A0A1I9Q5Y8); experiment: GC-MS of products in spent medium of engineered yeast; conditions: co-expressed GgBAS and MTR1; products of C-28 oxidation: erythrodiol, oleanolic acid
T6 construct: full-length ORF (RACE), expressed in Saccharomyces cerevisiae with GgBAS and M. truncatula reductase MTR1
T6 sequence (A0A1I9Q5Y8 1-479): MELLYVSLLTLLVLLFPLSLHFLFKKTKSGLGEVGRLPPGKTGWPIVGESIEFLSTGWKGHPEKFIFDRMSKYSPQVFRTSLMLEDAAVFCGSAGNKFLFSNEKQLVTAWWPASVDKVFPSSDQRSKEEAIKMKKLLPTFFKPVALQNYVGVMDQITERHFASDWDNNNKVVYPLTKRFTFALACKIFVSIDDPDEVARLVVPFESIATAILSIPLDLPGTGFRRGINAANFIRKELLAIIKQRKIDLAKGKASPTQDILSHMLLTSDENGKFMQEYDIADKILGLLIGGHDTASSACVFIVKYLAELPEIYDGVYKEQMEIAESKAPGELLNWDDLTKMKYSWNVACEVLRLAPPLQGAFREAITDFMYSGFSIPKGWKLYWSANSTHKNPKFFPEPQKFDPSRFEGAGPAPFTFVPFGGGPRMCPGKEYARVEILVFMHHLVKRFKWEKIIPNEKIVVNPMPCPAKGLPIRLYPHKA

[7] = target: T7, CYP716A110 (Aquilegia coerulea, UniProt A0A1I9Q5Z9); experiment: as above; conditions: co-expressed GgBAS and MTR1; products erythrodiol, oleanolic acid
T7 construct: full-length ORF from cDNA, expressed in Saccharomyces cerevisiae with GgBAS and M. truncatula reductase MTR1
T7 sequence (A0A1I9Q5Z9 1-480): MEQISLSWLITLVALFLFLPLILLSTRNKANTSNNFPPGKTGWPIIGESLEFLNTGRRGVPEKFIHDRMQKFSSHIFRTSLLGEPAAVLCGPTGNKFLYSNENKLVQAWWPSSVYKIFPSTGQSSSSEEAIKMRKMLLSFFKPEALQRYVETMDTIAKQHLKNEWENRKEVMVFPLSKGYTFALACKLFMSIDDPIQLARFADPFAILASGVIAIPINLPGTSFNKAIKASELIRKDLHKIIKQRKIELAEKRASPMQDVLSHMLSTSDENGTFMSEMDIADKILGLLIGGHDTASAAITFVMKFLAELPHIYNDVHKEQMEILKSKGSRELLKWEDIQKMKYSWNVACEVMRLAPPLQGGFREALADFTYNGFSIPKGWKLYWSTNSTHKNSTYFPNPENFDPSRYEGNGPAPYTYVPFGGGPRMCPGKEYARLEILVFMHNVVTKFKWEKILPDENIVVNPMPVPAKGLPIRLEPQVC

[8] = target: T8, CYP716A86 (Centella asiatica, UniProt A0A1I9Q5Y3); experiment: as above; conditions: co-expressed GgBAS and MTR1; products erythrodiol, oleanolic aldehyde, oleanolic acid
T8 construct: full-length ORF from cDNA library, expressed in Saccharomyces cerevisiae with GgBAS and M. truncatula reductase MTR1
T8 sequence (A0A1I9Q5Y3 1-482): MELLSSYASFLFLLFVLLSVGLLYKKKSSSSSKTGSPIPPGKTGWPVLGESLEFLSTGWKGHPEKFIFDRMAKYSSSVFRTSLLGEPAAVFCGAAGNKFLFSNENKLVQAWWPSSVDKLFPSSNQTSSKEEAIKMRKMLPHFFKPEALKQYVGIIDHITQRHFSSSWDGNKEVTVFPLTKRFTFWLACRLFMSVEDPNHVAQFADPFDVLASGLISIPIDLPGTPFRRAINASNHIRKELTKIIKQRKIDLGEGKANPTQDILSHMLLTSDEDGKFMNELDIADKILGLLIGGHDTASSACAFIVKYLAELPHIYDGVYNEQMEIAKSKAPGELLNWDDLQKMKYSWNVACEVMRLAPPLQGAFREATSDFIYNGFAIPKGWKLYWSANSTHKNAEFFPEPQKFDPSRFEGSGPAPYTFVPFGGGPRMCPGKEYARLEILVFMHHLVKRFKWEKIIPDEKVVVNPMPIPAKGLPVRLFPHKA

SMILES: CC(C)=CCC[C@@H](C)[C@H]1CC[C@@]2(C)[C@@H]3CC[C@H]4C(C)(C)[C@@H](O)CC[C@@]45C[C@@]35CC[C@]12C [cycloartenol]
- GC-MS of products in spent medium of engineered yeast [1]: dependent on both SlCAS and CYP716A113v1

SMILES: CC1(C)CC[C@]2(C(=O)O)CC[C@]3(C)C(=CC[C@@H]4[C@@]5(C)CC[C@H](O)C(C)(C)[C@@H]5CC[C@]43C)[C@@H]2C1 [oleanolic acid]
- GC-MS of products in spent medium of engineered yeast [2]: CYP716C11 and CYP716E41 converted oleanolic acid to maslinic acid
- GC-MS of products in spent medium of engineered yeast [3]: CYP716C11 and CYP716E41 converted oleanolic acid to maslinic acid

SMILES: C[C@H]1[C@H](C)CC[C@]2(C)CC[C@]3(C)C(=CC[C@@H]4[C@@]5(C)CC[C@H](O)C(C)(C)[C@@H]5CC[C@]43C)[C@H]12 [α-amyrin]
- GC-MS of products in spent medium of engineered yeast ([4]; co-expressed CaDDS and MTR1 (with CYP716E41 or CYP716C11), product ursolic acid): CYP716A83, CYP716C11 and CYP716E41 can function on both oleanane and ursane backbones

SMILES: CC1(C)CC[C@]2(C)CC[C@]3(C)C(=CC[C@@H]4[C@@]5(C)CC[C@H](O)C(C)(C)[C@@H]5CC[C@]43C)[C@@H]2C1 [β-amyrin]
- GC-MS of engineered yeast medium; product NMR [5]: CYP716A141 appears to be a multifunctional β-amyrin oxidase
- GC-MS of products in spent medium of engineered yeast [6]: CYP716A140-expressing yeast showed three new peaks corresponding to C-28 oxidation
- GC-MS of products in spent medium of engineered yeast [7]: CYP716A110 revealed new peaks corresponding to the erythrodiol and oleanolic acid standards
- GC-MS of products in spent medium of engineered yeast [8]: CYP716A83 and CYP716A86 catalyse the three-step oxidation of β-amyrin at the C-28 position
- GC-MS of products in spent medium of engineered yeast ([4]; co-expressed GgBAS and MTR1, in vivo, products erythrodiol, oleanolic aldehyde, oleanolic acid): CYP716A83 and CYP716A86 catalyse the three-step oxidation of β-amyrin at the C-28 position
